In ChEMBL document CHEMBL5233207, “Medicinal chemistry of the myeloid C-type lectin receptors Mincle, Langerin, and DC-SIGN” (RSC Med Chem, 2021):
Counter-ions that a name gives are not always drawn.

Assays:
[1] = target: C-type lectin domain family 4 member K (Homo sapiens, UniProt Q9UJ71); assay: Binding affinity to Langerin (unknown origin) by [19F] R2-filtered NMR assay
[2] = Inhibition of DC-SIGN (unknown origin)/ SARS CoV-2 spike glycoprotein interaction
[3] = target: T1, C-type lectin domain family 4 member M (Homo sapiens) (UniProt Q9H2X3); assay: Inhibition of DC-SIGN (unknown origin)- mediated fluorescent probe binding at 0.1 mM relative to control
T1 sequence (whole entry): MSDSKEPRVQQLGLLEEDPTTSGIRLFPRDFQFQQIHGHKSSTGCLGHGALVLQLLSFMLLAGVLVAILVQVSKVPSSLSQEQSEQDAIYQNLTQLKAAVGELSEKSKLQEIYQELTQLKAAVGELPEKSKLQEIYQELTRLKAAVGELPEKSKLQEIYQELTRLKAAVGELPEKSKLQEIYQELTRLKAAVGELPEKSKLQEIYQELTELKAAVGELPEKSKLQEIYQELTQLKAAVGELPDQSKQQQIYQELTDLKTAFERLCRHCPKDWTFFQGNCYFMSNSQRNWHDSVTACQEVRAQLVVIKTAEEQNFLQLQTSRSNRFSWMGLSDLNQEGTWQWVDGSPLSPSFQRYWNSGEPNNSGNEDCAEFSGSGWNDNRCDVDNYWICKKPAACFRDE

[4] = target: T1, C-type lectin domain family 4 member M (Homo sapiens); assay: Inhibition of DC-SIGN (unknown origin)- mediated fluorescent probe binding at 1 mM relative to control
[5] = system: Human immunodeficiency virus 1; assay: Antiviral activity against HIV-1 in human CD4+Th cells expressing DC-SIGN assessed as inhibition of viral infection; type: functional, organism-based; conditions: Human immunodeficiency virus 1, CD4+ve Th
Ebolavirus = assay: Antiviral activity against envelope pseudotyped Ebola virus in human Jurkat cells expressing DC-SIGN assessed as inhibition of viral infection; type: functional, organism-based
[6] = target: T2, C-type lectin domain family 4 member K (Mus musculus, UniProt Q8VBX4); assay: Inhibition of mannan binding to mouse Langerin extracellular domain assessed as apparent dissociation constant by ELLA assay; conditions: read-out: Kd(app)
T2 sequence (Q8VBX4 whole entry): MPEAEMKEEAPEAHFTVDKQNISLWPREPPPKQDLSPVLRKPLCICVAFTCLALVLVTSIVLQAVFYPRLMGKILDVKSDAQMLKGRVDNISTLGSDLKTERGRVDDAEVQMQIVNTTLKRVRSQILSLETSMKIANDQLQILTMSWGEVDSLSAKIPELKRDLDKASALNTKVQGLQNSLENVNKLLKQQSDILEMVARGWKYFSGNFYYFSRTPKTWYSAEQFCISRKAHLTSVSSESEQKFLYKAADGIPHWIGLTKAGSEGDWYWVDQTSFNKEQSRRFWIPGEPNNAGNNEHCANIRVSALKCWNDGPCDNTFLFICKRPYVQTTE

[7] = target: T2, C-type lectin domain family 4 member K; assay: Inhibition of mannan binding to mouse Langerin extracellular domain by ELLA assay

Sequence of C-type lectin domain family 4 member K (Homo sapiens, UniProt Q9UJ71) (Q9UJ71 whole entry, the tested form may be a part): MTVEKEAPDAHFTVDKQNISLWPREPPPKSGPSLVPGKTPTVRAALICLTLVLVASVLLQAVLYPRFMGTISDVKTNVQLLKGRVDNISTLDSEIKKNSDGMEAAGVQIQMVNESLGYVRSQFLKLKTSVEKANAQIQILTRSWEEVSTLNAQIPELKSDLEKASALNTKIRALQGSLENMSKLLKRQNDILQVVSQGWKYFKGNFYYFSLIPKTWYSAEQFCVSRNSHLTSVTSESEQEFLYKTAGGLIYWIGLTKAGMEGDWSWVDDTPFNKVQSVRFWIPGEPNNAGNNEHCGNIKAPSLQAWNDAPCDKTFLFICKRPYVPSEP

**Q.** With C#CCO[C@H]1O[C@H](CO)[C@@H](O)[C@H](O)[C@@H]1NC(=O)CS(=O)(=O)O as the compound, how does the Ki [1] read?
**A.** Its Ki is 1300 µM.

**Q.** Which IC50 [2] does the source give for O=C(NCc1ccc(CO)cc1)[C@H]1C[C@H](OCCn2cc(COCCC(CCOCCn3cc(-c4cc(OCCOCCO)c(C#Cc5cc(OCCOCCO)c(C#Cc6cc(OCCOCCO)c(-c7cn(CCOCCC(CCOCc8cn(CCO[C@H]9C[C@H](C(=O)NCc%10ccc(CO)cc%10)[C@@H](C(=O)NCc%10ccc(CO)cc%10)C[C@@H]9O[C@H]9O[C@H](CO)[C@@H](O)[C@H](O)[C@@H]9O)nn8)(CCOCc8cn(CCO[C@H]9C[C@H](C(=O)NCc%10ccc(CO)cc%10)[C@@H](C(=O)NCc%10ccc(CO)cc%10)C[C@@H]9O[C@H]9O[C@H](CO)[C@@H](O)[C@H](O)[C@@H]9O)nn8)CCOCc8cn(CCO[C@H]9C[C@H](C(=O)NCc%10ccc(CO)cc%10)[C@@H](C(=O)NCc%10ccc(CO)cc%10)C[C@@H]9O[C@H]9O[C@H](CO)[C@@H](O)[C@H](O)[C@@H]9O)nn8)nn7)cc6OCCOCCO)cc5OCCOCCO)cc4OCCOCCO)nn3)(CCOCc3cn(CCO[C@H]4C[C@H](C(=O)NCc5ccc(CO)cc5)[C@@H](C(=O)NCc5ccc(CO)cc5)C[C@@H]4O[C@H]4O[C@H](CO)[C@@H](O)[C@H](O)[C@@H]4O)nn3)CCOCc3cn(CCO[C@H]4C[C@H](C(=O)NCc5ccc(CO)cc5)[C@@H](C(=O)NCc5ccc(CO)cc5)C[C@@H]4O[C@H]4O[C@H](CO)[C@@H](O)[C@H](O)[C@@H]4O)nn3)nn2)[C@@H](O[C@H]2O[C@H](CO)[C@@H](O)[C@H](O)[C@@H]2O)C[C@@H]1C(=O)NCc1ccc(CO)cc1 here?
**A.** The IC50 was 9.6 µM.

**Q.** For C#CCO[C@H]1O[C@H](CO)[C@@H](O)[C@H](O)[C@@H]1NC(C)=O, which Ki [1] is on record?
**A.** The Ki was 48000 µM.

**Q.** Which Ki [1] does the source give for CC(=O)NCCO[C@@H]1O[C@H](CO)[C@@H](O)[C@H](O)[C@H]1NS(=O)(=O)c1ccc(C)cc1 here?
**A.** The Ki was 320 µM.

**Q.** Which Ki [1] does the source give for C#CCO[C@H]1O[C@H](CO)[C@@H](O)[C@H](O)[C@@H]1NC(=O)Cc1nnn[nH]1 here?
**A.** Its Ki is 7600 µM.

**Q.** With N[C@H]1C(O)O[C@H](CO)[C@@H](O)[C@@H]1O (stereo partly specified) [GLUCOSAMINE SULFATE] as the compound, how does the Ki [1] read?
**A.** The Ki was 1400 µM.

**Q.** What does the source list for NC(=O)c1ccc(CCCC2Nc3ccc(C(=O)N4CCN(c5ncccn5)CC4)cc3NC2=O)cc1 (stereo unspecified)?
**A.** inhibition [3]: 53%; inhibition [4]: 77%

**Q.** With COC(=O)[C@H]1C[C@H](OCCN)[C@@H](O[C@H]2O[C@H](CO)[C@@H](O)[C@H](O)[C@@H]2O)C[C@@H]1C(=O)OC as the compound, how does the IC50 [5] read?
**A.** The IC50 was 0.024 µM.

**Q.** And the IC50 (Ebolavirus; jurkat)?
**A.** The IC50 was < 0.06 µM.

**Q.** What does the source list for [N-]=[N+]=NCCO[C@H]1C[C@H](C(=O)NCc2ccc(CO)cc2)[C@@H](C(=O)NCc2ccc(CO)cc2)C[C@@H]1O[C@H]1O[C@H](CO)[C@@H](O)[C@H](O)[C@@H]1O?
**A.** IC50 [5]: 0.024 µM; IC50 (Ebolavirus; Orthoebolavirus, Jurkat): < 0.06 µM

**Q.** With O=C(NCCc1cn2c(n1)SCC2)c1cnc2sccn2c1=O as the compound, how does the Kd [6] read?
**A.** The Kd was 450 µM.

**Q.** And the IC50 [7]?
**A.** Its IC50 is 50 µM.

**Q.** Which results are given for NS(=O)(=O)c1ccc(CCCC2Nc3ccc(C(=O)N4CCN(c5ccncc5)CC4)cc3NC2=O)cc1 (stereo unspecified)?
**A.** inhibition [3]: 79%; inhibition [4]: 92%
